# Measurements taken from EP4585588A1, “BENZIMIDAZOLE COMPOUND, AND PREPARATION METHOD THEREFOR AND USE THEREOF” (Suzhou Pharmavan Co., Ltd., priority 2022, dated 2024).
# Assays:
# [1] = system: myosin heavy chain β (β-MHC); details: 48 h, 10 µM
# Experimental: Separation and plating of cardiomyocytes of rats: a certain number of SPF suckling rats were taken and placed in a clean bench according to an actual requirement for the number of cells, thoracic cavities were opened by scissors, hearts were separated, and the hearts were cut into tissue fragments with sterilized surgical scissors; Collagenase Type II (manufacturer: Sigma, article No.: C2-28-100MG) was added to a D-HANKS balanced salt buffer to prepare a 5 µg/mL enzyme digestion solution, and the tissue fragments of hearts were continuously digested for three times in a 37 °C constant-temperature water bath box; about 2 mL of the enzyme digestion solution was added for the first time, a supernatant was discarded after digestion, centrifugation and precipitation of cardiomyocytes and tissue fragments, about 4 mL of the enzyme digestion solution was independently added for the second time and the third time to continue digestion, a supernatant was remained each time, DMEM containing 10% FBS with the same volume as the digestion solution in the supernatant was immediately added to neutralize digestive enzymes, the supernatants for the second time and the third time were combined and centrifuged, a supernatant was discarded, an appropriate amount of DMEM containing 10% FBS was added to resuspend the cardiomyocytes, the cardiomyocytes were inoculated in a 100 mm culture plate and subjected to differential adhesion in a constant-temperature cell incubator for 2 h, and a supernatant was taken for cell count.
# A 24-well plate precoated with 1% gelatin was taken and plated at 1×10^5 cells/well, 500 µL of a 10% FBS+DMEM medium was contained in each well, and cells were cultured in a 37 °C constant-temperature cell incubator for 24 h. Different compounds were independently prepared into a 100 mM mother liquor with DMSO and gradient diluted with a 10% FBS+DMEM medium to prepare a 10 µM final solution of the compound containing 0.5% DMSO. The medium in the 24-well plate was discarded and replaced with a 500 µL/well medium containing a 10 µM compound, and three replicate wells and a negative control well were set for each compound. After 0.5 hours of drug action, PE (manufacturer: Meilun Biotechnology; article No.: MB1602) with a final concentration of 20 µM was added to each well, and no PE was added to the negative control wells; after 48 hours of PE action, sample detection was performed.
# Expression levels of genes related to cardiomyocyte hypertrophy was analyzed via real-time quantitative PCR detection of mRNA level of atrial natriuretic peptide (ANP) and myosin heavy chain β (β-MHC). The steps include extraction of total RNA of cells, reverse transcription synthesis of cDNA and real-time quantitative PCR assay.
# Based on real-time quantitative PCR detection of an mRNA level of ANP of cardiomyocytes, a drug with a potential of anti-cardiomyocyte hypertrophy was preliminarily screened and verified with an mRNA level of another hypertrophy gene β-MHC using a statistical method One-way ANOVA and statistical software GraphPad Prism.
# [2] = system: Models of Heart Failure due to Pressure Overload of Mice; assay: Pharmacodynamic test in mouse models of heart failure due to pressure overload (thoracic aorta ligation); format: in vivo, C57BL/6 mice; details: Table 5; 5 mg/kg intraperitoneal once a day for four consecutive weeks; after four weeks of administration (nine weeks of modeling); model group 28.6%
# Experimental: 1.1 Animals healthy C57BL/6 mice
# Modeling by thoracic aorta ligation surgery: preoperative echocardiography was performed to exclude mice with abnormal cardiac functions; for mice with normal cardiac functions, anesthesia was performed, and the mice were anesthetized and then transferred into a small animal operating table and fixed; an open airway was established via endotracheal intubation, and anesthesia was maintained; taking the second rib as the center, the skin was cut along the sternum toward the first and third ribs to expose the connection between the second rib and the sternum; the second rib was cut to expose the aorta thoracic segment; the aortic arch was freed, a thin thread was inserted underneath, a thin needle was placed in parallel to the aortic arch for co-ligation; after ligation, the thin needle was withdrawn to observe the condition of the mice, and the mice were sutured layer by layer after stabilization; the mice were placed on the thermal insulation pad to keep warm, and after waking up, the mice were put back into the cage for daily feeding according to the activity.
# After five weeks of modeling, echocardiography was performed on the mice to determine the ejection fractions of the hearts of the mice. When the ejection fraction decreased by about 50%, the ejection fraction met the experimental requirements, and the administration experiment started. Animals were grouped randomly and administered according to the ultrasound data, the echocardiography was performed every two weeks until week 9 ended, and pathological section analysis was performed.
# The results were expressed using mean±standard error, data analysis was performed using GraphPad Prism statistical software, and the comparison was analyzed using a t-test. P < 0.05 was determined that there was a difference with statistical significance, otherwise P was determined that there was no significant difference.
# [3] = system: Primary cardiomyocytes of suckling rats; assay: Area measurement of cardiomyocytes after PE injury; format: cell-based; details: 48 h, 10 µM
# Experimental: Primary cardiomyocytes of suckling rats were isolated and cultured and inoculated on a cell culture plate. A drug stock solution was taken and separately added to cell wells according to a certain dilution ratio, and a final concentration was 10 µM. After half hour of drug action, a phenylephrine (PE) stock solution was added, and a final concentration of PE was 20 µM. After 48 hours of PE action, cell samples were collected for real-time quantitative PCR assay or cell area measurement.
# Separation and plating of cardiomyocytes of rats: a certain number of SPF suckling rats were taken and placed in a clean bench according to an actual requirement for the number of cells, thoracic cavities were opened by scissors, hearts were separated, and the hearts were cut into tissue fragments with sterilized surgical scissors; Collagenase Type II (manufacturer: Sigma, article No.: C2-28-100MG) was added to a D-HANKS balanced salt buffer to prepare a […] enzyme digestion solution, and the tissue fragments of hearts were continuously digested for three times in a 37 °C constant-temperature water bath box; about 2 mL of the enzyme digestion solution was added for the first time, a supernatant was discarded after digestion, centrifugation and precipitation of cardiomyocytes and tissue fragments, about 4 mL of the enzyme digestion solution was independently added for the second time and the third time to continue digestion, a supernatant was remained each time, DMEM containing 10% FBS with the same volume as the digestion solution in the supernatant was immediately added to neutralize digestive enzymes, the supernatants for the second time and the third time were combined and centrifuged, a supernatant was discarded, an appropriate amount of DMEM containing 10% FBS was added to resuspend the cardiomyocytes, the cardiomyocytes were inoculated in a 100 mm culture plate and subjected to differential adhesion in a constant-temperature cell incubator for 2 h, and a supernatant was taken for cell count.
# Area measurement of cardiomyocytes of rats: a 24-well plate precoated with 1% gelatin was taken and plated at 1.0×10^3 cells/well, 500 µL of a 10% FBS+DMEM medium was contained in each well, and cells were cultured in a 37 °C constant-temperature cell incubator for 24 h; different compounds were independently prepared into a 100 mM mother liquor with DMSO and gradient diluted with a 10% FBS+DMEM medium to prepare a 10 µM final solution of the compound containing […]; the medium in the 24-well plate was discarded and replaced with a 500 µL/well medium containing a 10 µM compound, and three replicate wells and a negative control well were set for each compound; after 0.5 hours of drug action, PE (manufacturer: Meilun Biotechnology; article No.: MB1602) with a final concentration of 20 µM was added to each well, and no PE was added to the negative control wells; after 48 hours of PE action, at least five fields of view were randomly selected from each well under an inverted microscope (manufacturer: Nikon; model: Eclipse TS100), and the cell area data was calculated by Image J software; the area of the cells in the negative control wells was set to 1, the cell area hypertrophy multiples of the PE wells and each administration well were calculated separately, and statistical analysis was performed using the One-Way ANOVA method.
# The cardiomyocyte area was directly measured and the differences between the groups were compared for verification. The cardiomyocytes were co-intervened with PE and drugs and placed under a microscope for direct observation, and images were taken. The cell area data was calculated using Image J software. […]
smiles,measurement,setting,value
"Cc1nc2cc(-c3cc(F)cc(F)c3O)ccc2[nH]1 [Formula I-2, 2,4-difluoro-6-(2-methyl-1H-benzimidazol-5-yl)phenol]",Mean (real-time quantitative PCR validation results of cardiomyocyte β-MHC),[1],1.21
same,Ejection Fraction (Mean) of Ventriculus Sinister of Heart,[2],38.3%
same,Cell Area Hypertrophy Multiple (Mean±Standard Deviation) Compared with Control Wells,[3],1.18±0.16
